Measurements: patent US11407767B2, “Heterocyclyl substituted pyrrolopyridines that are inhibitors of the CDK12 kinase” (The University of Nottingham, priority 2017, dated 2022)
pIC50: −log10 of the molar value.

Molecular target: CDK12/CycK (Homo sapiens, UniProt Q9NYV4)
Experiment: Inhibition of CDK12 (ADP-Glo kinase assay)
Assay type: biochemical
Conditions: 60 nM CDK12/CycK, 30 minutes pre-incubation, 1 μM ATP, 0.5 μM RBER-IRStide substrate, 1 h at 25° C., read-out: CDK12/cyclin K IC50
Description: Assay buffer comprised 50 mM HEPES pH 7.5, 1 mM DTT, 20 mM MgCl2, 3 mM MnCl2, 3 μM Na3VO4 and 50 μg/ml PEG8000. Kinase reactions were carried out in 384-well Optiplates™ (PerkinElmer 6007299). Test compounds were dissolved & diluted in dimethyl sulfoxide (DMSO) and cross diluted into assay buffer with a final DMSO concentration of 1% (v/v) in the assay. Test compounds (or 1% DMSO in control and blank wells) were pre-incubated with 60 nM CDK12/CycK for 30 minutes. After this time 1 μM Adenosine-5′-triphosphate (ATP) and 0.5 μM RBER-IRStide substrate (ProQinase 0863-0000-1) were added to commence the kinase reaction. Incubations were carried out for 1 h at 25° C. with kinase activity determined using the ADP-Glo™ reagent from Promega according to the manufacturer's instructions. Light generated is proportional to kinase activity and measured using a luminometer (EnVision, PerkinElmer). The signal obtained in the blank wells (containing no kinase) was subtracted from all other wells and IC50 values were determined by fitting a sigmoidal curve to % inhibition of control versus Log10 compound concentration.

Sequence of CDK12/CycK (Q9NYV4 whole entry): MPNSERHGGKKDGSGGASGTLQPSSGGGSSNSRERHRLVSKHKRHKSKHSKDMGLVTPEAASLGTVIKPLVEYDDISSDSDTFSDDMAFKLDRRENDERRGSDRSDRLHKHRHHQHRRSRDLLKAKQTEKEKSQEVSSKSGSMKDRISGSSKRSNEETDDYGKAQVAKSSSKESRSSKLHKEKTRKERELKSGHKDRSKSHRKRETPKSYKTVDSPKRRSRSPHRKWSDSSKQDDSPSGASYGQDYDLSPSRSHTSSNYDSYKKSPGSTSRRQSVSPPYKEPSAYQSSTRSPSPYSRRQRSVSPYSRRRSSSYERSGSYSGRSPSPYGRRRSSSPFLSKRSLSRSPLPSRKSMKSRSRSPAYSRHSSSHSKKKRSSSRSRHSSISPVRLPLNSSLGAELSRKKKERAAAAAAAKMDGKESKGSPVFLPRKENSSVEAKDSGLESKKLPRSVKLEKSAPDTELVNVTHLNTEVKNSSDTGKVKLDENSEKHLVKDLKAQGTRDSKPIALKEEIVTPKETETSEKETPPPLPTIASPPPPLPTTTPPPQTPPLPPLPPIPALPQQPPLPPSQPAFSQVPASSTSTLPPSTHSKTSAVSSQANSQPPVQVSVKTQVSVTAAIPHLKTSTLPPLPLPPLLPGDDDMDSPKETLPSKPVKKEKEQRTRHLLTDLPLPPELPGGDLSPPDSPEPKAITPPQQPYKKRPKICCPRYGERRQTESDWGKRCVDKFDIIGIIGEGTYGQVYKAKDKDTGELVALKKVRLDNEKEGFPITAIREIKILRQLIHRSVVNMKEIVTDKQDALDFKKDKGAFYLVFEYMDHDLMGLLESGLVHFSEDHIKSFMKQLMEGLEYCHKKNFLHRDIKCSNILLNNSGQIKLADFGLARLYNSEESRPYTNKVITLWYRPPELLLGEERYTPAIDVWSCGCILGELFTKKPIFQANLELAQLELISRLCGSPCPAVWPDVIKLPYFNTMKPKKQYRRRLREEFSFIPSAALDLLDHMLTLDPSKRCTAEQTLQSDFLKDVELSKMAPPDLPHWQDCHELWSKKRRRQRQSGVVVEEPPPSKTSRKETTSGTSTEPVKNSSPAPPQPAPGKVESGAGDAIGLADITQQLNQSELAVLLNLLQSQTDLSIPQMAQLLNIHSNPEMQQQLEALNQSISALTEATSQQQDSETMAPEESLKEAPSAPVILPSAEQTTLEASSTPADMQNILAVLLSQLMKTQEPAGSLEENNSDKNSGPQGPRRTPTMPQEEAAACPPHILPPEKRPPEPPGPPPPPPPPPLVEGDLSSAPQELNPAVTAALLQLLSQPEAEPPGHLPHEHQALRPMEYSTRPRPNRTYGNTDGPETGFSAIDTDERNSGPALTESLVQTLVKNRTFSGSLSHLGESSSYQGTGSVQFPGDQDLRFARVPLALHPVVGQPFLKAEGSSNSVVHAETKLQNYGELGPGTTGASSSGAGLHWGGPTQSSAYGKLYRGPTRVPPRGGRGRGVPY
Sequence of CDK12/CycK (O75909 whole entry partner): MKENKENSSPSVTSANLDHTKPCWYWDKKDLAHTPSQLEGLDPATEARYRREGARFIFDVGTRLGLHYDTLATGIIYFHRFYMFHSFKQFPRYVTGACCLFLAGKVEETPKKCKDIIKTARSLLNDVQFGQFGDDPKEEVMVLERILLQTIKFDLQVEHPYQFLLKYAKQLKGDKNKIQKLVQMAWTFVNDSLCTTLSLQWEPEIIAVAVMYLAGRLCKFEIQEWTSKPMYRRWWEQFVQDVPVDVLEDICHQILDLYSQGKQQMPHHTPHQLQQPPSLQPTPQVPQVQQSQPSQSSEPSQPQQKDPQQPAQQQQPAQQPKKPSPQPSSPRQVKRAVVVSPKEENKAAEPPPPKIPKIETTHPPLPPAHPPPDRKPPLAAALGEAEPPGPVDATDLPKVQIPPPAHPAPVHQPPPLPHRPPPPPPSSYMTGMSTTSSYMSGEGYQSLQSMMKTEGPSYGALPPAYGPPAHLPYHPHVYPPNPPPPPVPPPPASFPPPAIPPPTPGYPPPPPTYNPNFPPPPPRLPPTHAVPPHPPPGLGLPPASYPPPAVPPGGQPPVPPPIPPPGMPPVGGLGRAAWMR

Row | pIC50 | SMILES
1 | > 7.00 | C=CC(=O)N1CCOC[C@H]1C(=O)NCCc1cc2c(-c3cnn4ncccc34)ccnc2[nH]1 [Example 165, (S)-4-Acryloyl-N-(2-(4-(pyrazolo[1,5-b]pyridazin-3-yl)-1H-pyrrolo[2,3-b]pyridin-2-yl)ethyl)morpholine-3-carboxamide]
2 | 6.00 to 7.00 | O=C(NCCc1cc2c(-c3cnn4ncccc34)ccnc2[nH]1)[C@@H]1CCCN1C(=O)C1=CCCC1 [Example 166, (S)-1-(Cyclopent-1-ene-1-carbonyl)-N-(2-(4-(pyrazolo[1,5-b]pyridazin-3-yl)-1H-pyrrolo[2,3-b]pyridin-2-yl)ethyl)pyrrolidine-2-carboxamide]
3 | > 7.00 | C=CC(=O)N1CCCC[C@@H]1C(=O)NCCc1cc2c(-c3cnn4ncccc34)ccnc2[nH]1 [Example 93, (R)-1-Acryloyl-N-(2-(4-(pyrazolo[1,5-b]pyridazin-3-yl)-1H-pyrrolo[2,3-b]pyridin-2-yl)ethyl)piperidine-2-carboxamide]
4 | > 7.00 | C=CC(=O)N1CCC[C@H]1C(=O)NCCCc1cc2c(-c3cnn4ncccc34)ccnc2[nH]1 [Example 216, (S)-1-Acryloyl-N-(3-(4-(pyrazolo[1,5-b]pyridazin-3-yl)-1H-pyrrolo[2,3-b]pyridin-2-yl)propyl)pyrrolidine-2-carboxamide]
5 | 6.00 to 7.00 | C=CC(=O)N1CCC[C@H]1C(=O)N(C)CCc1cc2c(-c3cnn4ncccc34)ccnc2[nH]1 [Example 46, (S)-1-Acryloyl-N-methyl-N-(2-(4-(pyrazolo[1,5-b]pyridazin-3-yl)-1H-pyrrolo[2,3-b]pyridin-2-yl)ethyl)pyrrolidine-2-carboxamide]
6 | > 7.00 | C=CC(=O)NCC(=O)N1CCC(c2cc3c(-c4cnn5ncccc45)ccnc3[nH]2)C1 (centres unmarked) [Example 152, N-(2-Oxo-2-(3-(4-(pyrazolo[1,5-b]pyridazin-3-yl)-1H-pyrrolo[2,3-b]pyridin-2-yl)pyrrolidin-1-yl)ethyl)acrylamide]
7 | 6.00 to 7.00 | O=C(NCCc1cc2c(-c3cnn4ncccc34)ccnc2[nH]1)[C@@H]1CCCN1 [Example 82, (S)—N-(2-(4-(pyrazolo[1,5-b]pyridazin-3-yl)-1H-pyrrolo[2,3-b]pyridin-2-yl)ethyl)pyrrolidine-2-carboxamide]
8 | > 7.00 | C=CC(=O)N1CCO[C@@H](C(=O)NCCc2cc3c(-c4cnn5ncccc45)ccnc3[nH]2)C1 (single isomer, unassigned) [Example 61]
9 | 6.00 to 7.00 | C=CC(=O)N1CCC(C(=O)NCCc2cc3c(-c4cnn5ncccc45)ccnc3[nH]2)CC1 [Example 77, 1-Acryloyl-N-(2-(4-(pyrazolo[1,5-b]pyridazin-3-yl)-1H-pyrrolo[2,3-b]pyridin-2-yl)ethyl)piperidine-4-carboxamide]
10 | > 7.00 | C=CC(=O)N1CCC1C(=O)NCCc1cc2c(-c3cnn4ncccc34)ccnc2[nH]1 (single isomer, unassigned) [Example 40]
11 | > 7.00 | C=CC(=O)N1CCCC(C(=O)NCCc2cc3c(-c4cnn5ncccc45)ccnc3[nH]2)C1 (centres unmarked) [Example 75, 1-Acryloyl-N-(2-(4-(pyrazolo[1,5-b]pyridazin-3-yl)-1H-pyrrolo[2,3-b]pyridin-2-yl)ethyl)piperidine-3-carboxamide]
12 | > 7.00 | C=CC(=O)N1CCOC(C(=O)NCCc2cc3c(-c4cnn5ncccc45)ccnc3[nH]2)C1 (centres unmarked) [Example 60, 4-Acryloyl-N-(2-(4-(pyrazolo[1,5-b]pyridazin-3-yl)-1H-pyrrolo[2,3-b]pyridin-2-yl)ethyl)morpholine-2-carboxamide]
13 | 4.52 to 6.00 | C=CC(=O)N1CCC(C(=O)NCc2cc3c(-c4cnn5ncccc45)ccnc3[nH]2)CC1 [Example 80, 1-Acryloyl-N-((4-(pyrazolo[1,5-b]pyridazin-3-yl)-1H-pyrrolo[2,3-b]pyridin-2-yl)methyl)piperidine-4-carboxamide]
14 | 6.00 to 7.00 | C=CC(=O)N1CCC[C@H](C(=O)N(C)CCc2cc3c(-c4cnn5ncccc45)ccnc3[nH]2)C1 [Example 48, (S)-1-Acryloyl-N-methyl-N-(2-(4-(pyrazolo[1,5-b]pyridazin-3-yl)-1H-pyrrolo[2,3-b]pyridin-2-yl)ethyl)piperidine-3-carboxamide]

Second part, the molecule before the results:

Row | SMILES | pIC50
15 | CN1CCN(CC(=O)NCc2cc3c(-c4cnn5ncccc45)ccnc3[nH]2)CC1 [Example 14, 2-(4-Methylpiperazin-1-yl)-N-((4-(pyrazolo[1,5-b]pyridazin-3-yl)-1H-pyrrolo[2,3-b]pyridin-2-yl)methyl)acetamide] | 4.52 to 6.00
16 | COCCNC(=O)c1cc2c(-c3cnn4ncccc34)ccnc2[nH]1 [Example 3, N-(2-Methoxyethyl)-4-(pyrazolo[1,5-b]pyridazin-3-yl)-1H-pyrrolo[2,3-b]pyridine-2-carboxamide] | 4.52 to 6.00
17 | O=C(NCc1cc2c(-c3cnn4ncccc34)ccnc2[nH]1)C1CC1 [Example 116, N-((4-(Pyrazolo[1,5-b]pyridazin-3-yl)-1H-pyrrolo[2,3-b]pyridin-2-yl)methyl)cyclopropanecarboxamide] | 4.52 to 6.00
18 | Cc1cc(-c2cnn3ncccc23)c2cc[nH]c2n1 [Example 1, 3-(6-Methyl-1H-pyrrolo[2,3-b]pyridin-4-yl)pyrazolo[1,5-b]pyridazine] | 4.52 to 6.00
19 | C=CC(=O)N(C)c1ccc(C(=O)NCc2cc3c(-c4cnn5ncccc45)ccnc3[nH]2)cc1 [Example 190, 4-(N-Methylacrylamido)-N-((4-(pyrazolo[1,5-b]pyridazin-3-yl)-1H-pyrrolo[2,3-b]pyridin-2-yl)methyl)benzamide] | 6.00 to 7.00
20 | c1cnc2ncc(-c3ccnc4[nH]ccc34)n2c1 [Example 29, 3-(1H-Pyrrolo[2,3-b]pyridin-4-yl)imidazo[1,2-a]pyrimidine] | 4.52 to 6.00
21 | CN(C)C/C=C/C(=O)N1CCC(C(=O)N2CCC(c3cc4c(-c5cnn6ncccc56)ccnc4[nH]3)CC2)CC1 [Example 66, (E)-4-(Dimethylamino)-1-(4-(4-(4-(pyrazolo[1,5-b]pyridazin-3-yl)-1H-pyrrolo[2,3-b]pyridin-2-yl)piperidine-1-carbonyl)piperidin-1-yl)but-2-en-1-one] | > 7.00
22 | CN1CCC(OCc2cc3c(-c4cnn5ncccc45)ccnc3[nH]2)CC1 [Example 167, 3-(2-(((1-Methylpiperidin-4-yl)oxy)methyl)-1H-pyrrolo[2,3-b]pyridin-4-yl)pyrazolo[1,5-b]pyridazine diformate] | 4.52 to 6.00
23 | C=CC(=O)Nc1cccc(C(=O)N(C)CCc2cc3c(-c4cnn5ncccc45)ccnc3[nH]2)c1 [Example 49, 3-Acrylamido-N-methyl-N-(2-(4-(pyrazolo[1,5-b]pyridazin-3-yl)-1H-pyrrolo[2,3-b]pyridin-2-yl)ethyl)benzamide] | 6.00 to 7.00
24 | CC1(C)OCC(COc2cnn3ncc(-c4ccnc5[nH]ccc45)c3c2)O1 (centres unmarked) [Example 25, 5-((2,2-Dimethyl-1,3-dioxolan-4-yl)methoxy)-3-(1H-pyrrolo[2,3-b]pyridin-4-yl)pyrazolo[1,5-b]pyridazine] | 4.52 to 6.00
25 | C=CC(=O)N[C@H]1CC[C@H](C(=O)NCc2cc3c(-c4cnn5ncccc45)ccnc3[nH]2)CC1 [Example 191, (1r,4r)-4-Acrylamido-N-((4-(pyrazolo[1,5-b]pyridazin-3-yl)-1H-pyrrolo[2,3-b]pyridin-2-yl)methyl)cyclohexane-1-carboxamide] | 4.52 to 6.00
26 | CCOCCC(=O)Nc1ccc(C(=O)NCCc2cc3c(-c4cnn5ncccc45)ccnc3[nH]2)cc1 [Example 81, 4-(3-Ethoxypropanamido)-N-(2-(4-(pyrazolo[1,5-b]pyridazin-3-yl)-1H-pyrrolo[2,3-b]pyridin-2-yl)ethyl)benzamide] | > 7.00
27 | C=CC(=O)N1CCC[C@H]1C(=O)N1CCC(c2cc3c(-c4cnn5ncccc45)ccnc3[nH]2)C1 (stereo partly drawn) [Example 153, 1-((2S)-2-(3-(4-(Pyrazolo[1,5-b]pyridazin-3-yl)-1H-pyrrolo[2,3-b]pyridin-2-yl)pyrrolidine-1-carbonyl)pyrrolidin-1-yl)prop-2-en-1-one] | > 7.00
28 | NCCc1cc2c(-c3cnn4ncccc34)ccnc2[nH]1 [Example 30, 2-(4-(Pyrazolo[1,5-b]pyridazin-3-yl)-1H-pyrrolo[2,3-b]pyridin-2-yl)ethan-1-amine] | 6.00 to 7.00
29 | C=CC(=O)Nc1ccc(C(=O)N(C)Cc2cc3c(-c4cnn5ncccc45)ccnc3[nH]2)cc1 [Example 185, 4-Acrylamido-N-methyl-N-((4-(pyrazolo[1,5-b]pyridazin-3-yl)-1H-pyrrolo[2,3-b]pyridin-2-yl)methyl)benzamide] | > 7.00
30 | C=CC(=O)N1CCC[C@H]1C(=O)NCCc1cc2c(-c3ccnn3C)ccnc2[nH]1 [Example 51, (S)-1-Acryloyl-N-(2-(4-(1-methyl-1H-pyrazol-5-yl)-1H-pyrrolo[2,3-b]pyridin-2-yl)ethyl)pyrrolidine-2-carboxamide] | 4.52 to 6.00
31 | C=CC(=O)Nc1cccc(C(=O)NCCCc2cc3c(-c4cnn5ncccc45)ccnc3[nH]2)c1 [Example 215, 3-Acrylamido-N-(3-(4-(pyrazolo[1,5-b]pyridazin-3-yl)-1H-pyrrolo[2,3-b]pyridin-2-yl)propyl)benzamide] | > 7.00
32 | CN(C)C/C=C/C(=O)N1CC[C@@H](C(=O)N2CCC(c3cc4c(-c5cnn6ncccc56)ccnc4[nH]3)CC2)C1 [Example 67, (R,E)-4-(Dimethylamino)-1-(3-(4-(4-(pyrazolo[1,5-b]pyridazin-3-yl)-1H-pyrrolo[2,3-b]pyridin-2-yl)piperidine-1-carbonyl)pyrrolidin-1-yl)but-2-en-1-one] | > 7.00
